{"source": "the NIST ThermoML archive (doi:10.1021/acs.jced.8b00720)", "key": {"[1]": {"test": "Molar enthalpy of transition or fusion", "settings": "Crystal; DSC"}, "[2]": {"settings": "Crystal; DSC"}}, "note": "Numbers after ± are expanded uncertainties."}
{"smiles": "CC[C@@H](C(N)=O)N1CCCC1=O", "note": "[(S)-2-(2-oxopyrrolidin-1-yl)butanamide]", "values": [{"measurement": "Molar enthalpy of transition or fusion", "setting": "[1]", "value": "7.07 ± 0.239", "unit": "kcal/mol"}, {"measurement": "Triple point temperature", "setting": "[2]", "value": "389.85 ± 1.2", "unit": "K"}]}
